From patent US20210128511A1, “PRODRUG COMPOSITIONS AND METHODS OF TREATMENT” (AQUESTIVE THERAPEUTICS, INC., priority 2019, published 2021)
“Also recorded” adds a separate entry of the source.

Columns and labels:
[1] = Intramuscular study in minipig for prodrugs, epinephrine pharmacokinetic profile; type: in vivo, male Yucatan miniature swine; settings: epinephrine in plasma, IM 2 mg/animal
Protocol: (§1) Yucatan minipigs (n=4 males per group) were weighed and weights were recorded. The morning of the study, the vascular access port (VAP) of each animal was checked for proper functioning. Minipigs with viable VAP were removed from the home cage and placed in a holding sling. The animals were fasted overnight prior to dose administration and for the duration of PK blood collections.
All the formulations were prepared fresh on the day of dosing and maintained on wet ice until dosing. The dose was injected in the rear hind limb. Prior to administering, the plunger of the syringe was aspirated and observed for any blood that may flow into the syringe. If no blood was observed, it was verified that the needle was in proper placement, and the test articles were administered.
At each specified time-point, 6 mL of whole blood was collected into blood collection tubes containing K2EDTA as the anticoagulant and sodium metabisulfite as stabilizer. Sodium metabisulfite was at a concentration of 8.9 mM, pH 3 (60 μL/6 mL of whole blood of the 890 mM stock solution). SigmaFast (600 μL of SigmaFast 1× solution to 6 mL of whole blood) was added immediately to the tubes as the enzyme arresting agent. The tubes were inverted several times for mixing upon addition of SigmaFast solution. […] The resulting plasma was obtained and stored at approximately […]. The analysis of epinephrine was done using LC-MS/MS method.
as §1, with “Applicants sought to identify epinephrine prodrugs with higher permeability and slower hydrolysis after intramuscular (IM) administrations. […] Yucatan” for “Yucatan”, “minipigs” for “minipigs (n=4 males per group)”, “in the” for “weights were recorded. The”
The dose was injected in the rear hind limb. […] At each specified time-point, 6 mL of whole blood was collected into blood collection tubes containing anticoagulant and stabilizer. Protease inhibitor cocktail was added and the tubes were inverted several times for mixing. All blood samples were centrifuged and the resulting plasma was analyzed for epinephrine using LC-MS/MS method.

[2] = In vitro human whole blood hydrolysis assay; settings: for hydrolysis in human whole blood compared to L-Dipivefrin: 1 μM, 37° C., up to 6 hours, epinephrine in plasma by LC-MS/MS
Protocol: Fresh healthy human whole blood was collected in blood collection tubes and preincubated for 30 min at 37° C.
Using human whole blood in vitro, epinephrine levels in plasma was measured. Whole blood was collected from 2 donors. Compounds were incubated at 1 μM conc with Stabilizer. Plasma was separated after stopping the enzyme reaction at different timepoints. Samples were extracted and analyzed by LC-MS method.

[3] = Hydrolysis testing after IV exposure, PK parameters; type: in vivo
Protocol: Hydrolysis was analyzed after intravenous (IV) administrations. All Groups were tested at the following time intervals: 0 (predose), 2, 5, 10, 12, 15, 17, 20, 25, 30, 40, 60, 90 and 120 minutes and 3 hr, 4 hr, 6 hr and 8 hr post dose.

[4] = Ex vivo permeation study, Franz diffusion cell; type: in vitro ADME, porcine; settings: for permeation: ex vivo, compared to L-Dipivefrin
Protocol: The Franz diffusion cell apparatus consists of two chambers separated by a membrane. The permeation studies were conducted using porcine buccal mucosa obtained from a slaughterhouse. The tissues were dermatomed to typically […] and mounted in vertical Franz diffusion cells maintained at 37° C. The tissue membrane separates the donor compartment containing the drug mixed with the permeation enhancer solution and the receptor compartment containing the collection media whish was selected to provide sink conditions throughout the experiment. The permeation rate was observed over several hours by analysing drug concentration in the receptor medium.
In one example, a permeation procedure is conducted as follows. A temperature bath is set to 37° C., and receiver media is placed in a water bath to adjust the temperature and begin degassing. A Franz diffusion cell is obtained and prepared. The Franz diffusion cell includes a donor compound, a donor chamber, a membrane, sampling port, receptor chamber, stir bar, and a heater/circulator. A stir bar is inserted into a Franz diffusion cell. Tissue is placed over the Franz diffusion cell, and it is ensured that the tissue covers the entire area with an overlap onto a glass joint. The top of a diffusion cell is placed over the tissue, and the top of the cell is clamped to the bottom. About 5 mL of receptor media is loaded into the receiver area to ensure that no air bubbles are trapped in the received portion of the cell. This ensures that all 5 mL can fit into the receiver area. Stirring is begun, and temperature is allowed to equilibrate for about 20 minutes. Meanwhile, High Performance Liquid Chromatography (HPLC) vials are labelled by cell number and time point. One must then check again for air bubbles as the solution will degas during heating.
If testing films, one can perform the following next steps: (1) weigh films, punch to match diffusion area (or smaller), reweigh, record pre- and post-punching weight; (2) wet a donor area with approximately 100 μL of phosphate buffer; (3) place film on a donor surface, top with 400 μL of phosphate buffer, and start timers.
For solution studies, one can perform the following steps: (1) using a micropipette, dispense 500 μL of the solution into each donor cell, start the timers; (2) sample 200 μL at the following time points (time=0 min, 20 min, 40 min, 60 min, 120 min, 180 min, 240 min, 300 min, 360 min), and place in labelled HPLC vials, ensure no air is trapped in the bottom of the vial by tapping the closed vials; (3) replace each sample time with 200 uL of receptor media (to maintain 5 mL); (4) When all time points completed, disassemble the cells and dispose of all materials properly.
1. Tissue is freshly excised and shipped (e.g. overnight) at 4° C. 2. The tissue is processed and frozen at −20° C. for up to three weeks prior to use. 3. The tissue is dermatomed to precise thickness. 4. Approximately 5 mL of receiving media is added to the receiving compartment. The media is selected to ensure sink conditions. 5. The tissue is placed in a Franz diffusion cell, which includes a donor compound, a donor chamber, a membrane, sampling port, receptor chamber, stir bar, and a heater/circulator. 6. Approximately 0.5 mL of donor solution is applied or 8 mm circular film and wetted with 500 μL PBS buffer. 7. Samples are taken from the receiving chamber at given intervals and replaced with fresh media.

[5] = Effect of sodium fluoride on drug absorption; settings: relative to compositions that did not include NaF
Description: Referring to FIG. 17, the graph indicates the effect of sodium fluoride on drug absorption.

Row | Structure (SMILES) | Cmax and AUC compared among prodrugs [1] | hydrolysis in human whole blood compared to L-Dipivefrin [2] | permeation [4] | also measured
1 | CNCC(OC(=O)C(C)(C)C)c1ccc(OC(=O)C(C)(C)C)c(OC(=O)C(C)(C)C)c1 (centres unmarked) [AQEP-01] | AQEP-04>AQEP-02>AQEP-03>AQEP-01 | – | – | –
2 | CNCC(O)c1ccc(OC(=O)N(C)C)c(OC(=O)N(C)C)c1 (centres unmarked) [AQEP-03] | AQEP-04>AQEP-02>AQEP-03>AQEP-01 | minimal hydrolysis; also recorded: did not show faster hydrolysis | – | –
3 | CC(C)OC(=O)N(C)CC(O)c1ccc(O)c(O)c1 (centres unmarked) [AQEP-06] | – | did not show any hydrolysis; also recorded: did not show faster hydrolysis | – | –
4 | CCC(C)(C)C(=O)Oc1ccc(C(O)CNC)cc1OC(=O)C(C)(C)CC (centres unmarked) [AQEP-02] | AQEP-04>AQEP-02>AQEP-03>AQEP-01 | – | – | –
5 | CCCC(=O)Oc1ccc(C(O)CNC)cc1OC(=O)CCC (centres unmarked) [AQEP-05] | – | – | effective permeation | conversion to epinephrine after IV administration compared to L-Dipivefrin [3]: Rapid conversion
6 | CN(CC(O)c1ccc(O)c(O)c1)C(=O)OC(C)(C)C (centres unmarked) [AQEP-07] | – | did not show any hydrolysis; also recorded: did not show faster hydrolysis | – | –
7 | CCOC(=O)Oc1ccc(C(O)CNC)cc1OC(=O)OCC (centres unmarked) [AQEP-12] | – | faster hydrolysis | – | –
8 | CCCCCC(=O)Oc1ccc(C(O)CNC)cc1OC(=O)CCCCC (centres unmarked) [AQEP-11] | – | faster hydrolysis | – | permeation (flux vs. carbon chain length) ([4]; 5 carbon straight chain): permeation dropped
9 | CNCC(O)c1ccc(OC(=O)c2ccccc2)c(OC(=O)c2ccccc2)c1 (centres unmarked) [AQEP-04] | higher Cmax and AUC compared to Prodrugs 01, 02 and 03 | faster hydrolysis | did not permeate as well; also recorded: did not permeate higher than L-Dipivefrin | plasma levels of epinephrine converted from prodrug, compared to L-Dipivefrin ([2]; 1 μM in human whole blood in vitro): Rapid conversion and higher levels of epinephrine; Cmax and AUC compared to L-Dipivefrin [1]: less
10 | CCC(=O)Oc1ccc(C(O)CNC)cc1OC(=O)CC (centres unmarked) [AQEP-10] | – | – | effective permeation | –
11 | CNCC(O)c1ccc(OC(=O)C(C)C)c(OC(=O)C(C)C)c1 (centres unmarked) [AQEP-09] | – | faster hydrolysis | effective permeation | ex vivo permeation of film formulations with varying polysaccharide content ([4]; formulations containing pullulan, compared to L-dipivefrin): Higher permeation; absorption with addition of NaF to the formulation [5]: increased the absorption
12 | CCCCC(=O)Oc1ccc(C(O)CNC)cc1OC(=O)CCCC (centres unmarked) [AQEP-08] | – | faster hydrolysis | effective permeation | –
